Results as given in patent US6455550B1, “N-alkanoylphenylalanine derivatives” (Hoffmann-La Roche Inc., priority 1997, dated 2002).

What follows are compounds tested against T1, VLA-4 (α4β1 integrin) binding to immobilized VCAM-1 (Homo sapiens, UniProt P05556+P13612) (assay: VLA-4/VCAM-1 Screening Assay (solid-phase, dual antibody ELISA)). Settings: Ramos cell-derived VLA-4, recombinant human VCAM-1 coated plates, 2 hr at 37° C.; read-out: IC50.
T1 construct: followed by 10 μl of Ramos cell-derived VLA-4; endogenous in cells; host or cells: Ramos cells (VLA-4 preparation derived from the cells)
Description: VLA-4 antagonist activity, defined as ability to compete for binding to immobilized VCAM-1 was quantitated using a solid-phase, dual antibody ELISA. VLA-4 (α4β1 integrin) bound to VCAM-1 was detected by a complex of anti-integrin β1 antibody: HRP-conjugated anti-mouse IgG: chromogenic substrate (K-Blue). Initially, this entailed coating 96 well plates (Nunc Maxisorp) with recombinant human VCAM-1 (0.4 μg in 100 μl PBS), sealing each plate and then allowing the plates to stand at 4° C for Å18 hr. […] On the day of assay, all plates were washed twice with VCAM Assay Buffer (200 μl/well of 50 mM Tris-HCl, 100 mM NaCl, 1 mM MnCl2, 0.05% Tween 20; pH 7.4). Test compounds were dissolved in 100% DMSO and then diluted 1:20 in VCAM Assay Buffer supplemented with 1 mg/mL BSA (i.e., final DMSO=5%). […] 100 μl per well of each dilution was added to the VCAM-coated plates, followed by 10 μl of Ramos cell-derived VLA-4. These plates were sequentially mixed on a platform shaker for 1 min, incubated for 2 hr at 37° C. and then washed four times with 200 μl/well VCAM Assay Buffer. 100 μl of mouse anti-human integrin β1 antibody was added to each well (0.6 μg/mL in VCAM Assay Buffer+1 mg/mL BSA) and allowed to incubate for 1 hr at 37° C. At the conclusion of this incubation period, all plates were washed four times with VCAM Assay Buffer (200 μl/well). A corresponding second antibody, HRP-conjugated goat anti-mouse IgG (100 μl per well @1:800 dilution in VCAM Assay Buffer+1 mg/mL BSA), was then added to each well, followed by a 1 hr incubation at room temperature and concluded by three washes (200 μl/well) with VCAM Assay Buffer. Color development was initiated by addition of 100 μl K-Blue per well (15 min incubation, room temp) and terminated by addition of 100 μl Red Stop Buffer per well. […] Results were calculated as % inhibition of total binding (i.e., VLA-4+VCAM-1 in the absence of test compound).

T1 sequence (P13612 34-1032): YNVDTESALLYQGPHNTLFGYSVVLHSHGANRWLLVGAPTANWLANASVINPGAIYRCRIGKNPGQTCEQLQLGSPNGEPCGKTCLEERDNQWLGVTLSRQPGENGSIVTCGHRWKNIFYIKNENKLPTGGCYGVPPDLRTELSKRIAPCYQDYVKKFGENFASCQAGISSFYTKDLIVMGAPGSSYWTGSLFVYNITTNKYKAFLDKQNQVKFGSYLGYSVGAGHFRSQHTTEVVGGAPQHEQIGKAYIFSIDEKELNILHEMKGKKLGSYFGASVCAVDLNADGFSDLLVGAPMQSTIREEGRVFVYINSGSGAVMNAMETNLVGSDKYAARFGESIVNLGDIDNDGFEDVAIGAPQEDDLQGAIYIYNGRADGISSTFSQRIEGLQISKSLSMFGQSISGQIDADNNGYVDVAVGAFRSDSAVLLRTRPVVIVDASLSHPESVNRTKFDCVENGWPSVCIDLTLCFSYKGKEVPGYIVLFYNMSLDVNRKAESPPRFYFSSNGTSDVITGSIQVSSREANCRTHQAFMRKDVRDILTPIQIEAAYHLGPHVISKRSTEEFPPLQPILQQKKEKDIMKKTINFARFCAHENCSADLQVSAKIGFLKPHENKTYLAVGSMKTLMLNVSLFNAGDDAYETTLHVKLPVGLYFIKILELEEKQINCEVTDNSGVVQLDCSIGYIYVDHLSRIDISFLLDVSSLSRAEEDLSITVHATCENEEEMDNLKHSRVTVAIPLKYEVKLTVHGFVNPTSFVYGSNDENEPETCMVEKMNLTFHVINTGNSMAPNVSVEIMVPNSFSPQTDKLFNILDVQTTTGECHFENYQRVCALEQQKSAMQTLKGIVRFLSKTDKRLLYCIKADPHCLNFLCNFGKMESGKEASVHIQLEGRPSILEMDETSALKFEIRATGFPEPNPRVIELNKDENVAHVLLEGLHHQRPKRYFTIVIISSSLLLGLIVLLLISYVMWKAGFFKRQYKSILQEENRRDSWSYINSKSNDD
T1 sequence (P05556 21-798): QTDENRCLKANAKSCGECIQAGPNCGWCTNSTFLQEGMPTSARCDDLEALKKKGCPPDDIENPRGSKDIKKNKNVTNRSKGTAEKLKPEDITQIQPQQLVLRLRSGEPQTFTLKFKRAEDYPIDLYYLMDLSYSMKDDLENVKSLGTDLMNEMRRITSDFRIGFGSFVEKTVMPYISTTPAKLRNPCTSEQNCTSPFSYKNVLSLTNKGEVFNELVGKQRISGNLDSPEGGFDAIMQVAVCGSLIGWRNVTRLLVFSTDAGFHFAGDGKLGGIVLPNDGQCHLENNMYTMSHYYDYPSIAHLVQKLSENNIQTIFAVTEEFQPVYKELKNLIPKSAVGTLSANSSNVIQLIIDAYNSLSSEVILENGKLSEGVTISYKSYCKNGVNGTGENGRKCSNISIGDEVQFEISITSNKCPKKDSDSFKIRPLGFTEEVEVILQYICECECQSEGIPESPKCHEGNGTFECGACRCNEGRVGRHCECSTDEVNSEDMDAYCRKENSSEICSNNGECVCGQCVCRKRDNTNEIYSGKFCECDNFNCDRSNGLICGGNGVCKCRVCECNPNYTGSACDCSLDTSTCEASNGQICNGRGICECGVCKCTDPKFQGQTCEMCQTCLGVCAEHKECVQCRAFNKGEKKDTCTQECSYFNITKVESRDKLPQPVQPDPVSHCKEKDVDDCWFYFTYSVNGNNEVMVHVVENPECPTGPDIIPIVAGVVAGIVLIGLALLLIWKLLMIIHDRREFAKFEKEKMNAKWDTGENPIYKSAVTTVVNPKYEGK

In order of falling IC50:
1. COc1ccc(C2(C(=O)N[C@@H](Cc3ccc(NS(=O)(=O)c4c(C)cc(C)cc4C)cc3)C(=O)O)CCCCC2)cc1 [Example 114, N-[[1-(4-Methoxyphenyl)cyclohexyl]carbonyl]-4-[[(2,4,6-trimethylphenyl)sulfonyl]amino]-L-phenylalanine]  155 nM
2. CCCCC(C)(CC)C(=O)N[C@@H](Cc1ccc(NC(=O)c2ccc(F)cc2C(F)(F)F)cc1)C(=O)O (stereo partly drawn) [Example 89]  81 nM
3. CCOC(=O)c1ccccc1NC(=O)Nc1ccc(C[C@H](NC(=O)C2(C)CC2(Cl)Cl)C(=O)O)cc1 (stereo partly drawn) [Example 121]  66 nM
4. COc1ccc(CC2(C(=O)N[C@@H](Cc3ccc(N4C(=O)c5ccncc5C4=O)cc3)C(=O)O)CCCC2)cc1 [Example 109, 4-(2,3-Dihydro-1,3-dioxo-1H-pyrrolo[3,4-c]pyridin-2-yl)-N-[[1-[(4-methoxyphenyl)methyl]cyclopentyl]carbonyl]-L-phenylalanine]  62 nM
5. CCCCC(C)(CC)C(=O)N[C@@H](Cc1ccc(NC(=O)[C@H](Cc2ccc(O)cc2)NC(C)=O)cc1)C(=O)O (stereo partly drawn) [Example 91]  40 nM
6. Cc1cc(C)c(S(=O)(=O)Nc2ccc(C[C@H](NC(=O)C34CC5CC(CC(C5)C3)C4)C(=O)O)cc2)c(C)c1 [Example 115, N-[(1-Adamantyl)carbonyl]-4-[[(2,4,6-trimethylphenyl)sulfonyl]amino]-L-phenylalanine]  22.7 nM
7. CC(=O)N[C@@H](Cc1ccc(O)cc1)C(=O)Nc1ccc(C[C@H](NC(=O)C2(C)CC2(Cl)Cl)C(=O)O)cc1 (stereo partly drawn) [Example 101]  18.3 nM
8. COc1ccc(CC2(C(=O)N[C@@H](Cc3ccc(NC(=O)c4ccc(F)cc4C(F)(F)F)cc3)C(=O)O)CCCC2)cc1 [Example 96]  17.4 nM
9. COc1ccc(C2(C(=O)NC(Cc3ccc(NC(=O)C(Cc4ccc(O)cc4)NC(C)=O)cc3)C(=O)O)CCCCC2)cc1 (stereo not drawn) [Example 106]  13.5 nM
10. COc1ccc(CC2(C(=O)N[C@@H](Cc3ccc(NC(=O)[C@H](Cc4ccc(O)cc4)NC(C)=O)cc3)C(=O)O)CCCC2)cc1 [Example 98]  11.7 nM
11. O=C(NCCC1(C(=O)N[C@@H](Cc2ccc(NC(=O)c3c(Cl)cccc3Cl)cc2)C(=O)O)CCCC1)c1ccc2c(c1)OCO2 [Example 165]  11 nM
12. COc1ccc(C2(C(=O)N[C@@H](Cc3ccc(NC(=O)c4ccc(F)cc4C(F)(F)F)cc3)C(=O)O)CCCCC2)cc1 [Example 104]  10.4 nM
13. CCCCC(CC)C(=O)NCCC1(C(=O)N[C@@H](Cc2ccc(NC(=O)c3c(Cl)cccc3Cl)cc2)C(=O)O)CCCC1 (stereo partly drawn) [Example 161]  9.4 nM
14. Cn1nc(C(C)(C)C)cc1C(=O)NCCC1(C(=O)N[C@@H](Cc2ccc(NC(=O)c3c(Cl)cccc3Cl)cc2)C(=O)O)CCCC1 [Example 167]  9.2 nM
15. COc1ccc(CC2(C(=O)N[C@@H](Cc3ccc(N4C(=O)c5ccccc5C4=O)cc3)C(=O)O)CCCC2)cc1 [Example 110]  8.2 nM
16. O=C(CC1CCCC1)NCCC1(C(=O)N[C@@H](Cc2ccc(NC(=O)c3c(Cl)cccc3Cl)cc2)C(=O)O)CCCC1 [Example 164]  6.2 nM
17. COc1ccc(CC2(C(=O)N[C@@H](Cc3ccc(NC(=O)N4CCC(C#N)(c5ccccc5)CC4)cc3)C(=O)O)CCCC2)cc1 [Example 119]  5 nM
18. COc1ccc(C2(C(=O)N[C@@H](Cc3ccc(N4C(=O)CSC4c4ccc(O)cc4)cc3)C(=O)O)CCCCC2)cc1 (stereo partly drawn) [Example 141, 4-[2-(4-Hydroxyphenyl)-4-oxo-3-thiazolidinyl]-N-[[1-(4-methoxyphenyl)cyclohexyl]carbonyl]-L-phenylalanine]  3.9 nM
19. N#CC1(C(=O)N[C@@H](Cc2ccc(NC(=O)CCN3CCCCC3)cc2)C(=O)O)CCCC1 [Example 92]  3 nM
20. CCCCC(C)(CC)C(=O)N[C@@H](Cc1ccc(NC(=O)N2CCC(C#N)(c3ccccc3)CC2)cc1)C(=O)O (stereo partly drawn) [Example 120]  2.9 nM
21. CC1(C(=O)N[C@@H](Cc2ccc(NC(=O)CCN3CCCCC3)cc2)C(=O)O)CC1(Cl)Cl (stereo partly drawn) [Example 99]  2.1 nM
22. COc1ccc(C2(C(=O)N[C@@H](Cc3ccc(NC(=O)N4CCC(C#N)(c5ccccc5)CC4)cc3)C(=O)O)CCCCC2)cc1 [Example 122]  2.1 nM
23. COc1ccc(C2(C(=O)NC(Cc3ccc(NC(=O)CCN4CCCCC4)cc3)C(=O)O)CCCC2)cc1 (stereo not drawn) [Example 93]  1.9 nM
24. COc1ccc(C2(C(=O)N[C@@H](Cc3ccc(N4C(=O)CSC4c4ccc5ccccc5c4)cc3)C(=O)O)CCCCC2)cc1 (stereo partly drawn) [Example 142, N-[[1-(4-methoxyphenyl)cyclohexyl]carbonyl]-4-[2-(2-naphthyl)-4-oxo-3-thiazolidinyl]-L-phenylalanine]  1.7 nM
25. CCCCC(C)(CC)C(=O)N[C@@H](Cc1ccc(NC(=O)c2cc([N+](=O)[O-])ccc2C)cc1)C(=O)O (stereo partly drawn) [Example 90]  1.04 nM
26. COc1ccc(C2(C(=O)NC(Cc3ccc(NC(=O)CCN4CCCCC4)cc3)C(=O)O)CCCCC2)cc1 (stereo not drawn) [Example 102]  0.95 nM
27. COc1ccc(C2(C(=O)N[C@@H](Cc3ccc(N4C(=O)[C@H](C)N(C)C4=O)cc3)C(=O)O)CCCCC2)cc1 [Example 143]  0.85 nM
28. COc1ccc(C2(C(=O)N[C@@H](Cc3ccc(NC(=O)c4cc([N+](=O)[O-])ccc4C)cc3)C(=O)O)CCCCC2)cc1 [Example 105]  0.83 nM
29. COc1ccc(C2(C(=O)N[C@@H](Cc3ccc(N4C(=O)[C@H](CC(C)C)N(C)C4=O)cc3)C(=O)O)CCCCC2)cc1 [Example 144, N-[[1-(4-methoxyphenyl)cyclohexyl]carbonyl]-4-[(4S)-3-methyl-4-(2-methylpropyl)-2,5-dioxo-1-imidazolidinyl]-L-phenylalanine]  0.75 nM
30. COc1ccc(C2(C(=O)NC(Cc3ccc(NC(=O)c4c(Cl)cccc4Cl)cc3)C(=O)O)CCCCC2)cc1 (stereo not drawn) [Example 103]  0.7 nM
31. COc1ccc(CC2(C(=O)N[C@@H](Cc3ccc(NC(=O)c4cc([N+](=O)[O-])ccc4C)cc3)C(=O)O)CCCC2)cc1 [Example 97]  0.5 nM
32. N#CC1(c2ccccc2)CCN(C(=O)Nc2ccc(C[C@H](NC(=O)C34CC5CC(CC(C5)C3)C4)C(=O)O)cc2)CC1 [Example 118]  0.35 nM

Each compound was assayed against T2, cell-surface VLA-4 (α4β1 integrin) on Ramos cells binding to immobilized VCAM-1 (Homo sapiens, UniProt P05556+P13612) (assay: Ramos (VLA-4)/VCAM-1 Cell-Based Screening Assay (cell adhesion)). Settings: Calcein-AM labeled Ramos cells, VCAM-1 coated plates, 45 min at room temperature; read-out: IC50 in Ramos Cell Based Assay.
T2 construct: Ramos cells bearing cell-surface VLA-4; endogenous in cells; host or cells: Ramos cells (VLA-4); VCAM-1 purified from CHO cell culture media
Source text: Calcein-AM was purchased from Molecular Probes Inc.
VLA-4 (α4β1 integrin) antagonist activity, defined as ability to compete with cell-surface VLA-4 for binding to immobilized VCAM-1, was quantitated using a Ramos-VCAM-1 cell adhesion assay. Ramos cells bearing cell-surface VLA-4, were labeled with a fluorescent dye (Calcein-AM) and allowed to bind VCAM-1 in the presence or absence of test compounds.
Initially, this entailed coating 96 well plates (Nunc Maxisorp) with recombinant human VCAM-1 (100 ng in 100 μl PBS), sealing each plate and allowing the plates to stand at 4° C for Å18 hr. The VCAM-coated plates were subsequently washed twice with 0.05% Tween-20 in PBS, and then blocked for 1hr (room temperature) with 200 μl of Blocking Buffer (1% BSA/0.02% thimerosal) to reduce non-specific binding. Following the incubation with Blocking Buffer, plates were inverted, blotted and the remaining buffer aspirated. Each plate was then washed with 300 μl PBS, inverted and the remaining PBS aspirated.
Test compounds were dissolved in 100% DMSO and then diluted 1:25 in VCAM Cell Adhesion Assay Buffer (4 mM CaCl2, 4 mM MgCl2 in 50 mM TRIS-HCl, pH 7.5) (final DMSO=4%). […] 100 μl/well of each dilution was added to the VCAM-coated plates, followed by 100 μl of Ramos cells (200,000 cells/well in 1% BSA/PBS). […] Plates were inverted to remove non-adherent cells, blotted and 300 μl/well PBS added. Plates were again inverted, blotted and the remaining buffer gently aspirated. 100 μl Lysis Buffer (0.1% SDS in 50 mM TRIS-HCl, pH 8.5) was added to each well and agitated for 2 min on a rotary shaking platform.

T2 sequence (P13612 34-1032): as the sequence (P13612 34-1032) above
T2 sequence (P05556 21-798): as the sequence (P05556 21-798) above

In order of rising IC50:
1. COc1ccc(C[C@@H]2C(=O)N(c3ccc(C[C@H](NC(=O)C4(CCNC(C)=O)CCCC4)C(=O)O)cc3)C(c3ccccc3)N2C(C)=O)cc1 (single isomer, unassigned) [Example 278]  2 nM
2. COc1ccc(C[C@@H]2C(=O)N(c3ccc(C[C@H](NC(=O)C4(CCNC(C)=O)CCCC4)C(=O)O)cc3)C(c3ccccc3)N2C(=O)COc2ccccc2)cc1 (single isomer, unassigned) [Example 284]  2.9 nM
3. CCCC(=O)N1C(c2ccccc2)N(c2ccc(C[C@H](NC(=O)C3(CCNC(C)=O)CCCC3)C(=O)O)cc2)C(=O)[C@H]1Cc1ccc(OC)cc1 (single isomer, unassigned) [Example 280]  4.2 nM
4. CC(=O)NCCC1(C(=O)N[C@@H](Cc2ccc(N3C(=O)[C@@H](C)N(C(C)=O)C3c3ccc(Cl)cc3)cc2)C(=O)O)CCCC1 (mixture of isomers) [Example 350]  13 nM
